Measurements reported in publication PMC5320518, “Novel Liver-targeted conjugates of Glycogen Phosphorylase Inhibitor PSN-357 for the Treatment of Diabetes: Design, Synthesis, Pharmacokinetic and Pharmacological Evaluations” (Scientific Reports, 2017).
Values joined by “and” are separate entries in the source; they are usually repeats but may differ in a detail not shown here. Identical values can stand only once. Counter-ions that a name gives are not always drawn. Like-named read-outs stand apart in the source and are kept apart here.

Key:
[1] = molecular target: T1, rabbit muscle GPa (RMGPa) (Oryctolagus cuniculus, UniProt P00489); test: RMGPa inhibition assay (phosphate release from glucose-1-phosphate); type: biochemical; settings: for IC50: mean ± S.D. of three determinations, NI means no inhibition
T1 sequence (P00489 2-843 limits assumed): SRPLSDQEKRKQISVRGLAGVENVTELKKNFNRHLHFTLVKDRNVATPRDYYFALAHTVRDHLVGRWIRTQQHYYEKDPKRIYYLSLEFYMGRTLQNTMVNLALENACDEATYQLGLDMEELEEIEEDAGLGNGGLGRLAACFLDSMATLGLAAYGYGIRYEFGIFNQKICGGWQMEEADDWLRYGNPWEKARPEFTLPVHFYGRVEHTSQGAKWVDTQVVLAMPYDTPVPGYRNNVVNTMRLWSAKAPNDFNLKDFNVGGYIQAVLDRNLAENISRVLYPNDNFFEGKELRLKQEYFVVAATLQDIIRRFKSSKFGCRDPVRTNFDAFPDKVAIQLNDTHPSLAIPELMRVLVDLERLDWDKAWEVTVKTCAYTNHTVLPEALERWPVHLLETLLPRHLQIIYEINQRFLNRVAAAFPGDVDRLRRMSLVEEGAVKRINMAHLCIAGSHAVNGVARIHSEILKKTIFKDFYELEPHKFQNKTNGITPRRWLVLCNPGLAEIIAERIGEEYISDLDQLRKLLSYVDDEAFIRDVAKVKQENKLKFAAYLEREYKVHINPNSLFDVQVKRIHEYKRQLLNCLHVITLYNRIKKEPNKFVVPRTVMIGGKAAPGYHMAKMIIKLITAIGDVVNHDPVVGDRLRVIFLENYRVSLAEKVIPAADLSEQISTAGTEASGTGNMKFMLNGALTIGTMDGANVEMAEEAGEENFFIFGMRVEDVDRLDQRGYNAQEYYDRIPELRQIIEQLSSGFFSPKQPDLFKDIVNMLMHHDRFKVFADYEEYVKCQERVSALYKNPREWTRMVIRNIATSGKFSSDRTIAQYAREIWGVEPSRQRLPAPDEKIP
Description: All the compounds were evaluated for their inhibitory activity against rabbit muscle GPa (RMGPa). The activity of RMGPa was measured through detecting the release of phosphate from glucose-1-phosphate in the direction of glycogen synthesis. CP-91149, a well-known allosteric GP inhibitor, which shares the same binding site with PSN-357, was used as the positive control and the results are summarized in Table 1[21]. […] This remarkable loss of activity was probably due to the direct steric interference by such bulky substituent of cholic acid group. […] The results is consistent with the SARs of PSN-357 that the hydroxyl of piperidine is not an essential group for the GP inhibitory activity that could be modified slightly.
The inhibitory activity of the test compounds against rabbit muscle glycogen phosphorylase a (GPa) was monitored using microplate reader (BIO-RAD) based on the published method. In brief, GPa activity was measured in the direction of glycogen synthesis by the release of phosphate from glucose-1-phosphate. Each test compound was dissolved in DMSO and diluted at different concentrations for IC50 determination. The enzyme was added into 100 μL of buffer containing 50 mM Hepes (pH = 7.2), 100 mM KCl, 2.5 mM MgCl2, 0.5 mM glucose-1-phosphate, 1 mg/mL glycogen and the test compound in 96-well microplates (Costar). After the addition of 150 μL of 1 M HCl containing 10 mg/mL ammonium molybdate and 0.38 mg/mL malachite green, reactions were run at 22 °C for 25 min, and then the phosphate absorbance was measured at 655 nm. The IC50 values were estimated by fitting the inhibition data to a dose-dependent curve using a logistic derivative equation.

HepG2 cells = test: Glycogenolysis inhibition in HepG2 cells; type: cell-based, human; settings: read-out: IC50 (glycogenolysis inhibition, HepG2 cells)
Description: (§1) To evaluate the effects of all compounds in cells, the glycogenolysis assays were established in both rat and human liver cells based on the published method. […] The inhibitory activities of the derivatives of PSN-357 (e.g. 25–28) were also explored. It is not surprising that the derivatives still retained micromolar inhibitory activities. Introduction of steric bulks to the hydroxyl group (e.g. 33, 40, 42, 48) led to a complete loss of activity. Data analysis indicated no clear SAR for the substitutents in the cell-based assays.
(§2) The inhibition of hepatic glycogenolysis was monitored by the measurement of liver glycogen, which was done quantitatively by the anthrone reagent (Sigma) colorimetric method based on the published method. Isolated rat hepatocytes or HepG2 cells (Sigma) were treated with the test compound or DMSO solvent (final concentration, 0.10%), followed by 60-min incubation with 0.3 nM glucagon (GGN). Assays were terminated by centrifugation, and cells were digested with 30% KOH followed by glycogen determination. The IC50 values were estimated by fitting the inhibition data to a dose-dependent curve using a logistic derivative equation.

isolated rat hepatocytes = test: Glycogenolysis inhibition in isolated rat hepatocytes; type: cell-based; settings: mean ± S.D. of three, NI means no inhibition
Description: as §1, §2

[2] = Stability in simulated gastric fluid (SGF); type: in vitro ADME; settings: SGF pH 1.21 with pepsin, 2 μM, 37 °C
Description: (§3) All the conjugates were tested for their chemical and metabolic stability in multiple assays, including simulated gastric fluid (SGF), simulated interstinal fluid (SIF), mouse plasma, and mouse liver microsome (MLM).
(§4) For the stability in SGF (Fig. 8) and SIF (Fig. 9), the conjugates could be divided into three groups: (1) stable conjugates 2, 6 and 9. […] The two conjugates were degraded within 6 h and 1 h in SGF and SIF, respectively, with alomost no conjugates at the end of the 24 h incubation in both SGF and SIF; (3) complicated conjugates 3, 4, 5 and 8.
(§5) The simulated gastrointestinal fluids were prepared according to USP specifications. For SGF, NaCl (0.12 g) and pepsin (0.18 g, from porcine stomach mucosa) was dissolved in HCl (0.42 mL) and sufficient H2O was added to make 60 mL. The pH of the test solution was determined as 1.21 by pH meter. For the SIF, KH2PO4 (0.408 g) and pancreatin (0.6 g, from porcine pancreas) was dissolved in H2O (60 mL). The pH of the test solution was determined as 6.79 by pH meter. Each test compound was dissolved in DMSO and diluted to a final concentration of 2 μM in SIF and SGF. The final concentrations of DMSO and CH3CN in the incubation mixture were 0.2% and 0.45%. Aliquots of these solutions were pipetted into glass tubes, and placed in a 37 °C shaking water bath. Test samples at corresponding time point (1, 2, 6, 24 h) were removed at the end of incubation time and immediately mixed with 800 μL of cold acetonitrile containing 500 ng/mL tolbutamide (internal standard). Samples were subjected to centrifuge at 4000 rpm, 4 °C for 20 min. Aliquots 60 μL of supernatant was combined with 120 μL water for LC-MS/MS analysis.

[3] = Stability in mouse liver microsomes (MLM); type: in vitro ADME; settings: C57BL/6, pH 7.4, n = 3
Description: Additionally, the compounds’ stability in microsome were evaluated by measuring the rate of compounds consumpation in MLM and the results are shown in Table 3.
The microsomal pellet was suspended in potassium phosphate buffer (100 mM, pH 7.4), 10 μM test compound or positive control (diclofenac) was added. Liver microsomes from C57BL/6 mice (BD Gentest) were pooled. The mixture of microsome solution and compound was incubated at 37 °C for about 10 min in the presence of a NADPH-regenerating system, consisting of 0.02 M DL-isocitric acid (trisodium salt), 0.1 mg/mL isocitrate dehydrogenase and 1 mM NADPH. The addition of ice-cold CH3CN (including 100 ng/mL tolbutamide as internal standard) terminated the reaction. The mixture was vortexed for approx (30 s), centrifuged (20 min, 4000 rpm) and the supernatant was collected and analysed by LC-MS/MS method.

[4] = Stability in simulated intestinal fluid (SIF); type: in vitro ADME; settings: SIF pH 6.79 with pancreatin, 2 μM, 37 °C
Description: as §3, §4, §5

[5] = Homo sapiens, HepG2, 1 h, HepG2 cells, 60-min incubation with 0.3 nM glucagon, mean ± S.D. of three, NI means no inhibition
[6] = Hepatocyte, 1 h, isolated rat hepatocytes, 60-min incubation with 0.3 nM glucagon, read-out: IC50 (glycogenolysis inhibition, rat hepatocytes)
[7] = Rattus norvegicus, Hepatocyte, 1 h, read-out: IC50 (glycogenolysis inhibition, rat hepatocytes), isolated rat hepatocytes, 60-min incubation with 0.3 nM glucagon

## CC(C)[C@H](N)C(=O)OC1CCN(C(=O)[C@H](Cc2ccc(F)cc2)NC(=O)c2cc3cc(Cl)ncc3[nH]2)CC1 (as salt: hydrochloride) [Compound 27]
other
  melting point: 214 to 216 °C

## CN(C)C(=O)[C@H](O)[C@H](Cc1ccccc1)NC(=O)c1cc2cc(Cl)ccc2[nH]1 [CP-91149, reference compound]
[1]
  IC50: 0.09 ± 0.04 µM
HepG2 cells; HepG2 cells, 60-min incubation with 0.3 nM glucagon, mean ± S.D. of three, NI means no inhibition
  IC50: 2.53 ± 0.78 µM
Isolated rat hepatocytes; isolated rat hepatocytes, 60-min incubation with 0.3 nM glucagon, read-out: IC50 (glycogenolysis inhibition, rat hepatocytes)
  IC50: 3.08 ± 1.16 µM

## CC(C)(C)OC(=O)C[C@H](NC(=O)OC(C)(C)C)C(=O)OC1CCN(C(=O)[C@H](Cc2ccc(F)cc2)NC(=O)c2cc3cc(Cl)ncc3[nH]2)CC1 [Compound 25]
[1]
  IC50: 0.81 ± 0.077 µM
HepG2 cells; [5]
  IC50: 15.1 ± 4.11 µM
other
  melting point: 118 to 120 °C
Isolated rat hepatocytes; [6]
  IC50: 10.2 ± 1.13 µM

## C[C@H](N)C(=O)OC1CCN(C(=O)[C@H](Cc2ccc(F)cc2)NC(=O)c2cc3cc(Cl)ncc3[nH]2)CC1 [Compound 26]
[1]
  IC50: 0.56 ± 0.043 µM
HepG2 cells; [5]
  IC50: 6.99 ± 2.1 µM
Isolated rat hepatocytes; [6]
  IC50: 9.79 ± 9.65 µM

## CC(C)[C@H](N)C(=O)OC1CCN(C(=O)[C@H](Cc2ccc(F)cc2)NC(=O)c2cc3cc(Cl)ncc3[nH]2)CC1 [Compound 27]
[1]
  IC50: 0.88 ± 0.17 µM
HepG2 cells; [5]
  IC50: 16.8 ± 3.71 µM
Isolated rat hepatocytes; [6]
  IC50: 14.7 ± 4.99 µM

## N[C@@H](CO)C(=O)OC1CCN(C(=O)[C@H](Cc2ccc(F)cc2)NC(=O)c2cc3cc(Cl)ncc3[nH]2)CC1 [Compound 28]
[1]
  IC50: 0.52 ± 0.01 µM
[1]; vs PSN-357
  fold less potent than PSN-357 (RMGPa): approximately 1.25 fold
HepG2 cells; [5]
  IC50: 2.88 ± 0.16 µM
Isolated rat hepatocytes; [6]
  IC50: 13.6 ± 0.23 µM

## CC(C)[C@H](NC(=O)OC(C)(C)C)C(=O)N[C@@H](C)C(=O)OC1CCN(C(=O)[C@H](Cc2ccc(F)cc2)NC(=O)c2cc3cc(Cl)ncc3[nH]2)CC1 [Compound 33]
[1]
  IC50: 27 ± 6.39 µM
other
  melting point: 151 to 153 °C
Isolated rat hepatocytes; [6]
  IC50: 11.1 ± 3.67 µM

## CC(C)(C)OC(=O)N[C@@H](Cc1ccccc1)C(=O)N[C@@H](CCCCNC(=O)OCC1c2ccccc2-c2ccccc21)C(=O)OC1CCN(C(=O)[C@H](Cc2ccc(F)cc2)NC(=O)c2cc3cc(Cl)ncc3[nH]2)CC1 [Compound 40]
[1]
  IC50: 3.44 ± 0.22 µM
HepG2 cells; [5]
  IC50: 33.6 ± 12.2 µM
Isolated rat hepatocytes; [6]
  IC50: 38.4 ± 5.76 µM

## CC(CCC(=O)NC(Cc1ccccc1)C(=O)NC(CCCCNC(=O)OCC1c2ccccc2-c2ccccc21)C(=O)OC1CCN(C(=O)C(Cc2ccc(F)cc2)NC(=O)c2cc3cc(Cl)ncc3[nH]2)CC1)C1CCC2C3C(O)CC4CC(O)CCC4(C)C3CC(O)C12C (stereo not shown) [Compound 42]
[1]
  IC50: 15.4 ± 0.89 µM
HepG2 cells; Homo sapiens, HepG2, 1 h
  IC50: 180 ± 51.2 µM
other
  melting point: 149 to 151 °C
Isolated rat hepatocytes; [6]
  IC50: 5.56 ± 2.41 µM

## CC(C)(C)OC(=O)c1ccc(/N=N/c2ccccc2CCC(=O)OC2CCN(C(=O)[C@H](Cc3ccc(F)cc3)NC(=O)c3cc4cc(Cl)ncc4[nH]3)CC2)cc1 [Compound 47]
other
  melting point: 123 to 125 °C
Isolated rat hepatocytes; [6]
  IC50: 97.6 ± 1.1 µM

## O=C(CCc1ccccc1/N=N/c1ccc(C(=O)O)cc1)OC1CCN(C(=O)[C@H](Cc2ccc(F)cc2)NC(=O)c2cc3cc(Cl)ncc3[nH]2)CC1 [Compound 48]
[1]
  IC50: 3.11 ± 0.05 µM
HepG2 cells; [5]
  IC50: 9.18 ± 7.42 µM
other
  melting point: 127 to 129 °C
Isolated rat hepatocytes; [6]
  IC50: 35 ± 3.46 µM

## C[C@H](CCC(=O)NCC(=O)OC1CCN(C(=O)[C@H](Cc2ccc(F)cc2)NC(=O)c2cc3cc(Cl)ncc3[nH]2)CC1)[C@H]1CC[C@H]2[C@@H]3[C@H](O)C[C@@H]4C[C@H](O)CC[C@]4(C)[C@H]3C[C@H](O)[C@]12C [Conjugate 1]
[1]
  IC50: 5.9 µM and 5.94 µM
HepG2 cells; [5]
  IC50: 203 ± 3.39 µM
[2]
  time within which degraded in SGF: ≤ 6 h
[3]
  CLint scaled at 10 μM: 172 mL/min/kg
  half-life at 10 μM: 31.9 min
  microsomal CLint at 10 μM: 43.4 µL/min/mg
Isolated rat hepatocytes; [7]
  IC50: 41.1 ± 5.11 µM
[4]
  time within which degraded in SIF: ≤ 1 h

## C[C@H](NC(=O)CC[C@@H](C)[C@H]1CC[C@H]2[C@@H]3[C@H](O)C[C@@H]4C[C@H](O)CC[C@]4(C)[C@H]3C[C@H](O)[C@]12C)C(=O)OC1CCN(C(=O)[C@H](Cc2ccc(F)cc2)NC(=O)c2cc3cc(Cl)ncc3[nH]2)CC1 [Conjugate 3]
[1]
  IC50: 40.5 ± 15.7 µM
[2]; 24 h incubation
  stability in SGF (in words): relatively stable
[3]
  CLint scaled at 10 μM: 200 mL/min/kg
  half-life at 10 μM: 27.4 min
  microsomal CLint at 10 μM: 50.6 µL/min/mg
Isolated rat hepatocytes; [7]
  IC50: 632 ± 99.4 µM
[4]
  time within which degraded in SIF: ≤ 1 h

## O=C(O)Cc1ccccc1Nc1c(Cl)cccc1Cl [Diclofenac, diclofenac, reference compound]
[3]
  CLint scaled at 10 μM: 208 mL/min/kg
  half-life at 10 μM: 26.3 min
  microsomal CLint at 10 μM: 52.6 µL/min/mg
